Consider two molecules from patent US12097262B2, “mTORC1 inhibitors” (THE REGENTS OF THE UNIVERSITY OF CALIFORNIA, priority 2014, dated 2024).

The EC50 is the concentration that produces a half-maximal response. As usually defined, the inhibition is the percentage by which the read-out fell short of the control.

The structures appear in SMILES notation.

One series relates to SNU-449. Description: Cell viability assay (CellTiter-Glo), SNU-449. Conditions: Homo sapiens; for EC50: SNU-449, 72 h, read-out: EC50 (nM) SNU-449. (Cellular ATP, detected with luciferase, serves as a proxy for viable cell number.)
The test system of a further series is HCT-15. In words: Cell viability assay (CellTiter-Glo), HCT-15. It counts as cell-based, human. Conditions: Homo sapiens; for EC50: 72 h after compound treatment.
Series [1] relates to mTORC1 and mTORC2 signaling (pS6, p4E-BP1, pAkt S473). Description: Time-course effects on mTORC1 and mTORC2 signaling in SNU-449. It counts as cell-based, human. Conditions: 0.33-24 h. As for the experimental part: Cellular Signaling Effects of Class mTOR Inhibitors. Cells were seeded in 60 mm cell culture dishes and incubated 1-2 days until 70-90% confluency. Cells were treated with compound solution in DMSO (1000×) and incubated at 37° C. in a 5% CO2 humidified incubator for a given length of time. Whole cell lysates were prepared using RIPA buffer (R^3792) (TEKnova, Hollister, CA USA) with a phosphatase inhibitor cocktail tablet PhosStop and a protease inhibitor cocktail tablet cOmplete Mini (Roche Diagnostics GmbH, Mannheim, Germany). Cell lysates (based on a certain amount of protein determined by Pierce BCA Protein Assay Kit (PI-23225) (Thermo Fisher Scientific Inc., Waltham, MA USA)) were electrophoresed using a Criterion Tris-HCl gel 4-20% (Bio-Rad Laboratories, Hercules, CA USA) and transferred to a nitrocellulose membrane (162-0115) (Bio-Rad Laboratories, Hercules, CA USA). After incubation for more than 1 h with a blocking buffer at room temperature, membranes were labeled with primary antibodies by overnight incubation at 4° C., followed by 1 hour incubation with horseradish peroxidase-conjugated (HRP-conjugated) secondary antibodies at room temperature. The following antibodies were used for immunoblot: phospho-Akt (S473) (#9271), phospho-Akt (T308) (#2965), total-Akt (#9272), phospho-S6 (Ser240/Ser244) (#2215L), S6 ribosomal protein (#2217), phospho-4E-BP1 (T37/T46) (#2855), total 4E-BP1 (#9644) (Cell Signaling Technology, Inc., Danvers, MA USA), FKBP12 (sc-28814) mouse β-actin (sc-8432) (Santa Cruz Biotechnology, Inc., Dallas, Texas USA), anti-rabbit IgG conjugated with horseradish peroxidase (HRP) (#7074), and anti-mouse IgG conjugated with HRP (#7076) (Cell Signaling Technology, Inc., Danvers, MA USA). Nitrocellulose membranes were exposed with SuperSignal® West Pico Chemiluminescent Substrate or Femto Maximum Sensitivity Substrate (Thermo Fisher Scientific Inc., Waltham, MA USA) and signals were recorded on a CL-Xposure film (Thermo Fisher Scientific Inc., Waltham, MA USA).

The conditions of series [2]: clinical trials; cited from earlier work.
The next series concerns 786-O. Description: Cell viability assay (CellTiter-Glo), 786-O. Conditions: Homo sapiens; for EC50: 786-0, 72 h after compound treatment. Format: cell-based, human.
Another series deals with SNU-182. Description: Cell viability assay (CellTiter-Glo), SNU-182. It counts as cell-based, human. Conditions: Homo sapiens; for EC50: 72 h after compound treatment.
The test system of another series is SNU-398. In words: Cell viability assay (CellTiter-Glo), SNU-398. Conditions: Homo sapiens; for EC50: 72 h after compound treatment. It counts as cell-based, human.
Series [3] deals with TORC1 and TORC2 outputs (p4E-BP1, pS6). Description: Drug washout experiment in SNU-449 cells. Format: cell-based, human. Conditions: 30 nM for 3 h, then washout. Here is the method:
Cellular Signaling Effects of Class mTOR Inhibitors. Cells were seeded in 60 mm cell culture dishes and incubated 1-2 days until 70-90% confluency. Cells were treated with compound solution in DMSO (1000×) and incubated at 37° C. in a 5% CO2 humidified incubator for a given length of time. […] After incubation for more than 1 h with a blocking buffer at room temperature, membranes were labeled with primary antibodies by overnight incubation at 4° C., followed by 1 hour incubation with horseradish peroxidase-conjugated (HRP-conjugated) secondary antibodies at room temperature. […] Nitrocellulose membranes were exposed with SuperSignal® West Pico Chemiluminescent Substrate or Femto Maximum Sensitivity Substrate (Thermo Fisher Scientific Inc., Waltham, MA USA) and signals were recorded on a CL-Xposure film (Thermo Fisher Scientific Inc., Waltham, MA USA).
Drug Washout Experiment. SNU-449 cells were treated with 30 nM of compounds for 3 h. The medium was aspirated out and cells were washed with fresh 10% FBS in RPMI1640 medium. Then, cells were incubated with fresh 10% FBS in RPMI1640 medium at 37° C. for described time period.

Series [4] has as its system mTORC1 and mTORC2 downstream signaling (pS6, p4E-BP1, pAkt S473). Description: Downstream signaling of mTOR by immunoblotting, dose dependence, HCT-15 and SNU-449 cells. Conditions: immunoblot at 3 h after compound treatment. Format: cell-based, human.
Description: Downstream signaling of mTOR was tested using an immunoblotting method at 3 h after compound treatment.
A further series has as its system mTORC1 and mTORC2. Description: Western blot analysis of mTORC1/mTORC2 inhibition in MCF-7 cells. Format: cell-based. Conditions: 4 hours, western blot (FIG. 13A). Here is the method: FIGS. 13A-13B. FIG. 13A: MCF-7 cells were treated for 4 hours with E1035 and M1071 before harvesting. FIG. 13B: SNU-449 cells were treated with 3 hours with E1010 before harvesting. Cells were lysed and blotted for the indicated proteins. M1071 has the narrowest concentration range between mTORC1 and mTORC2 inhibition. The concentration range between mTORC1 and mTORC2 inhibition widens for E1035.
Cell Culture and Western Blot Analysis. Cells were grown in 6-well plates and treated with inhibitor at the indicated concentrations or with vehicle (0.1% DMSO). Treated cells were lysed, and lysates were resolved by SDS-PAGE, transferred to nitrocellulose and blotted. All antibodies were purchased from Cell Signaling Technology.
Background: In western blotting, separated proteins are transferred to a membrane and probed.

The subject of series [5] is phospho-4E-BP1, pS6, phospho-S473 of Akt in 786-O xenograft tumor. Description: Pharmacodynamic study in human renal cancer 786-O xenograft tumor in mice. It counts as in vivo. As for the experimental part: Pharmacodynamic studies of M1071 in human renal cancer 786-O xenograft tumor in mice. […] Tumor samples were collected at 3 h after drug administration. For the MWF group, M-1071 was administered once daily every other day. At 4 h after the last administration, tumor samples were collected. After the freezing tumor samples, they were homogenized and treated with RIPA buffer containing phosphatase inhibitor and protease inhibitor. The following western blotting analysis were conducted in a similar way to abovementioned method.
For orientation: In xenograft studies the graft and the host belong to different species.

The test system of another series is MCF-7 cells. Description: Cell proliferation assay (CellTiter-Glo, 72 h), MCF-7 cells. It counts as cell-based. Conditions: 72 hours (FIG. 14B). As for the experimental part: FIGS. 14A-14B. FIG. 14A: 786-O cells were treated for 72 hours with the indicated drugs before cell viability was measured. […] FIG. 14B: MCF-7 cells were treated for 72 hours with the indicated drugs before cell viability was measured.
Cell proliferation assays. Cells grown in 96-well plates were treated with inhibitor in triplicate or vehicle (0.1% DMSO). After 72 h, cell viability was assessed with the […]-GLO® Luminescent Cell Viability Assay (Promega). Cell proliferation curves were generated using Prism.

Series [6] is described as follows: Effect on blood glucose level in mice. Conditions: mice (n=3), intraperitoneal, 1, 3 mg/kg.
Excerpt: Effect on blood glucose level. […] Blood glucose levels (mg/dL) were monitored.

Description for SNU-182: (§1) The cells were grown in appropriate medium (vender recommended) supplemented with 10% heat-inactivated fetal bovine serum (FBS), in tissue culture dishes placed in a humidified incubator maintained at 37° C. in an atmosphere of 5% CO2 and 95% air.
(§2) Cell viability assay. Cells were seeded in a 96-multiwell plate at 3000-4000 cells per well in medium containing FBS and cells were incubated at 37° C. overnight. After 18-20 h, compounds in 10×DMSO solution (n=3) were added to the cells and were incubated for additional 3 days in a humidified incubator in an atmosphere of 5% CO2 and 95% air. After treatment of Cell Titer-Glo® luminescent cell viability assay reagent (Promega Corporation, Madison, WI USA), the luminescence value was recorded using SpectraMax M5 Multi-Mode Microplate Readers (Molecular Devices, LLC, Sunnyvale, CA USA). Concentration response curves were generated on GraphPad Prism (GraphPad Software, La Jolla, CA USA) by calculating the decrease in luminescence values in compound-treated samples relative to the DMSO controls.
(§3) Anti-proliferative effects of compounds were evaluated in human colorectal cancer HCT-15 cells (mutation: KRAS, PIK3CA), human hepatocellular carcinoma SNU-449 (mutation: TP53, CDKN2A), SNU-398 (mutation: CTNNB 1), SNU-182 (mutation: TP53) and renal adenocarcinoma 786-O (mutation: VHL, PTEN, TP53, CDKN2A) in 72 h after compound treatment.
Description for SNU-398: as §1, §2, §3

As for `CC(C)n1nc(-c2ccc3oc(N)nc3c2)c2c(N)ncnc21` [MLN0128, reference compound], the half-maximal effective concentration (EC50) in the series with SNU-449 is 10 to 50 nM; in the series with HCT-15, 50 to 100 nM; in the series on 786-O it was 50 to 100 nM; in the series with SNU-182, 50 to 100 nM; in the series with SNU-398, 10 to 50 nM. In series [1], the “p4E-BP1 inhibition, time course” value is “completely inhibited p4E-BP1 in early onset (0.33-1 h) and then partial phosphorylation of 4E-BP1 was observed after 3 h to 24 h”. The “phosphorylation of Akt S473, time course” value in series [1] is recorded as “blocked phosphorylation of pAkt S473 continuously during 0.33-24 h”. For the same molecule, the dose limiting toxicity result in series [2] is listed as “Grade ≥3 hyperglycemia”. Besides, the “time until inhibitory effects disappeared after washout” value in series [3] is listed as at most 1 h. Besides, the “mTORC1/2 downstream inhibition (pS6, p4E-BP1 and pAkt S473)” value in series [4] was “pan-mTORC1/2 downstream inhibition”.
As for `CO[C@H]1C[C@@H]2CC[C@@H](C)[C@@](O)(O2)C(=O)C(=O)N2CCCC[C@H]2C(=O)O[C@H]([C@H](C)C[C@@H]2CC[C@@H](OCCOCc3cn(CCOCCOCCOCCOCCOCCOCCOCCOCCC(=O)NCCCCn4nc(-c5ccc6oc(N)nc6c5)c5c(N)ncnc54)nn3)[C@H](OC)C2)CC(=O)[C@H](C)/C=C(\C)[C@@H](O)[C@@H](OC)C(=O)[C@H](C)C[C@H](C)/C=C/C=C/C=C/1C` [Compound M-1071, 40-O-(2-((1-(32-(4-amino-3-(2-aminobenzo[d]oxazol-5-yl)-1H-pyrazolo[3,4-d]pyrimidin-1-yl)-27-oxo-3,6,9,12,15,18,21,24-octaoxa-28-azadotriacontyl)-1H-1,2,3-triazol-4-yl)methoxy)ethyl)-rapamycin], the “concentration range between mTORC1 and mTORC2 inhibition” value with mTORC1 and mTORC2 is listed as “narrowest”. Besides, the mTORC2 inhibition result in the series with mTORC1 and mTORC2 is “also inhibits mTORC2”. Further, the half-maximal effective concentration (EC50) in the series on SNU-449, with HCT-15, with 786-O, with SNU-182 and with SNU-398 was below 10 nM each time. The inhibition at 10 µM lay within 25 to 50% with SNU-449 (SNU-449, read-out: % inhibition at 10 μM SNU-449); 50 to 100% in the series with HCT-15 (read-out: % inhibition at 10 μM HCT-15, 10 μM); 25 to 50% in the series on 786-O (786-0, read-out: % inhibition at 10 μM 786-O, 10 μM); 25 to 50% in the series on SNU-182 (read-out: % inhibition at 10 μM SNU-182, 10 μM); 50 to 100% in the series with SNU-398 (read-out: % inhibition at 10 μM SNU-398, 10 μM). Further, in series [5] (5 mg/kg), the “inhibition of pS6 and p4EBP-1 in tumor” value is on record as “complete inhibition”. In series [5] (highest dosing of 5 mg/kg), the “inhibition of phospho-S473 of Akt in tumor” value is “slight”. Further, in series [5] (intraperitoneal), the “Phosphorylation of S6 in tumor” value is recorded as “inhibited”. For the same molecule, the “inhibition against phospho-4E-BP1 in tumor” value in series [5] (intraperitoneal, tumor collected 3 h after administration) is “dose dependent inhibition”. In addition, the “p4E-BP1 inhibition, time course” value in series [1] is “continuous complete inhibition of TORC1 outputs within 3-24 h”. Also, the “phosphorylation of Akt S473, time course” value in series [1] is “transient feedback activation on Akt S473 at 1 and 3 h, and then a slight inhibition was observed at 24 h”. Moreover, the “effects on cell proliferation” value in the series on MCF-7 cells is “potent effects on cell proliferation”. In series [6], the blood glucose level result was “no increase in blood glucose levels”. Further, the “sustained inhibitory effect on p4E-BP1 after washout” value in series [3] is “at least 2 h”. The “sustained inhibitory effect on pS6 after washout” value in series [3] was “at least 4 h”. Further, the “mTORC1/2 downstream inhibition (pS6, p4E-BP1 and pAkt S473)” value in [4] was “stronger inhibition of mTORC1 signaling (pS6 and p4E-BP1) compared to mTORC2 downstream Akt S473 phosphorylation”. Besides, the p4E-BP1 inhibition entry in series [4] was “complete p4E-BP1 inhibition at drug concentrations in which pAkt S473 is not inhibited”.
